Results published in patent publication US9221872B2, “Peptides and peptidomimetics in combination uses and treatments for cancer patient subpopulations” (priority 2013, dated 2015).
Where a SMILES comes first, the peptide text is derived from it. Where no end group is shown, it is not given here. [ ]: non-standard residue; d: D form. dPhe(F5) = N[C@H](Cc1c(F)c(F)c(F)c(F)c1F)C(=O)O; dBpa = N[C@H](Cc1ccc(C(=O)c2ccccc2)cc1)C(=O)O; dCha = N[C@H](CC1CCCCC1)C(=O)O

How the values were obtained:
Jurkat cells [1] = test: G2 checkpoint abrogation, bleomycin treated Jurkat cells, flow cytometry; type: cell-based, human; settings: for G2 checkpoint abrogating activity: bleomycin treated Jurkat cells
Description: Cell-Cycle Analysis The cell cycle status of the cells treated with bleomycin or adriamcin were analyzed by flow cytometry as described by Kawabe (1997) Nature 385:454-458. In brief, two million cells were re-suspended and incubated in 200 μl Krishan's solution (0.1% Sodium citrate, 50 μg/ml PI, 20 μg/ml RNase A and 0.5% NP-40) for 1 hr at 4° C. and analyzed by a flow cytometry, FACScan™ (Beckton Dickinson, Mountain View, Calif.) with the program CELLQuest™ (Beckton Dickinson).
Flow cytometry analysis of G2 checkpoint abrogation was performed using human leukemia derived Jurkat cell line. In brief, cultured cells were treated with various doses of peptide/peptidomimetic and 40 μg/ml bleomycine for 24 hr. The DNA of the cells was stained with propidium iodide and analyzed by flow cytometry.
(§1) The “Appearance of side effect when used alone” indicates the peptide/peptidomimetic dose that produced Jurkat cell cycle disturbance, i.e., the appearance of significant amounts of SubG1 cells (dead cells) or cells in which the DNA content of each varies more than usual. […] The “G2 abrogating dose” indicates the peptide/peptidomimetic dose with 40 μg/ml bleomycine that produced detectable G2 checkpoint abrogation activity following treatment for 24 hours. The “Appearance of side effect when used with colchicine” indicates the peptide/peptidomimetic dose with 5 μg/ml colchicine that produced Jurkat cell cycle disturbance following treatment for 24 hours.
(§2) A comparison between G2 checkpoint abrogating activity and non specific toxicity (M checkpoint abrogation) by CB501 was performed. In brief, Jurkat cells were treated with 40 μg/ml bleomycin or 0.5 μg/ml colchicine for G2 checkpoint abrogating activity and non specific toxicity, respectively. The DNA amount in each of the treated cells was analyzed by flow cytometry, as previously described.

HUVEC = test: Growth of normal human umbilical endothelial cells; type: cell-based
Description: Similar studies were performed using normal human umbilical endothelial cells (HUVEC).

[2] = test system: CBP501-sensitive tumor cells; settings: cited from earlier work
Jurkat cells [3] = test: M phase checkpoint abrogation / non specific toxicity, colchicine treated Jurkat cells; type: cell-based
Description: Flow cytometry analysis of M phase checkpoint abrogation by the compounds was performed using human T cell leukemia Jurkat cell line treated with colchicine (5 μg/ml or 0.5 μg/ml) and various doses of peptide/peptidomimetics for 24 hr (FIG. 12). The DNA of the cells was stained and analyzed by flow cytometry as described above.
as §1, §2

[4] = cited from earlier work
[5] = test system: MIAPaCa2 human pancreatic carcinoma; test: MIAPaCa2 subcutaneous tumor in scid mice; type: in vivo, mouse
Description: To study in vivo efficacy of the compounds, MIAPaCa2 human pancreatic carcinoma cells were implanted subcutaneously in scid mice. The treatment was initiated when the size of the primary tumor became 0.1 cm3 (Day0) or larger, e.g., 7 or 8 mm in diameter. CDDP (3 mg/kg) and CBP 501 (10 or 40 mg/kg) were intra-peritoneally administered alone or in combination. Tumor sizes were measured using calipers three times a week, and volumes were calculated using the formula: weight(mg)=[width (mm)2×length (mm)]/2. Mean tumor sizes for each treatment group are plotted (n=4) against the days after the start of treatment (FIG. 10).

MIAPaCa2 = test: Sub-G1 (dead cell) analysis of MIAPaCa2 treated with bleomycin or adriamycin; type: cell-based, human; settings: bleomycine 10 μg/ml or adriamycin 1 μg/ml, 3 hours, then 21 hours
Description: The G2 checkpoint abrogating activity of various compounds at different doses on human pancreatic cancer derived cell line MIAPaCa2 treated with bleomycine (Bleo) or adriamycin (ADR) was studied. Briefly, cells were incubated with the compounds and bleomycine (10 μg/ml) or adriamycin (1 μg/ml) for 3 hours. The medium was changed and incubated for an additional 21 hours. Harvested cells were stained for DNA by propium iodide and analyzed with flow cytometry as previously described. The % of the sub-G1 cell population is indicated as dead cells in FIG. 3.

[6] = test system: MIAPaCa2 human pancreatic carcinoma cells; test: Colony formation analysis of MIAPaCa2 cells; settings: CBP501 10 μM, cisplatin or oxaliplatin 1, 3 or 9 μg/ml, 3 hours, 10 days
Description: Briefly, cells were plated at 300 cells/well in 6 well plates, incubated overnight, and treated with the compounds for three hours. The medium was changed and cultured for an additional 10 days. Cells were subsequently fixed with 70% methanol, stained with 0.1% crystal violet and visualized.

[7] = Mouse serum treatment analysis, residual CBP501 quantity by HPLC; type: in vitro ADME; settings: mouse serum (table title), 37 degree
non-squamous NSCLC = test: Phase II randomized study, cisplatin and pemetrexed with or without CBP501; type: in vivo, human; settings: for Hazard Ratio OS: Arm A vs Arm B
Description: Clinical Study Design: Open-label, multicenter, phase II randomized, two-arm, comparative study. The protocol evaluated full-dose cisplatin and pemetrexed with or without CBP501. […] Randomization was stratified according to baseline stage of disease (IIIb vs IV), presence of brain metastasis and whether or not patients were eligible for bevacizumab therapy.
A cycle was considered to be 3 weeks (21 days).
3. Cisplatin 75 mg/m^2 was administered as a 1-hour i.v. infusion immediately after the pemetrexed infusion.
Cox proportional hazards model was employed to estimate the hazard ratio (HR) for PFS between the 2 treatment arms. The model included the treatment arm as a factor as well as the randomization stratification factors. The following covariates were explored: age, gender, race (Caucasian/non-Caucasian), prior surgery/procedure (yes/no), prior radiotherapy (yes/no), x-ray interpretation (normal/abnormal), ECG interpretation (normal/abnormal), bone scan (normal/abnormal), and time from diagnosis. Any continuous variables such as age and time from diagnosis to study treatment could have been converted into categorical variables by specifying 2 or several classes of values if a better model fit would result. The exploratory variables were entered using a stepwise regression algorithm using the following criteria: a variable must be significant at the 0.25 level to be entered into the model and significant at 0.15 level to remain in the model. For the final model, the point estimate of the hazard ratios were provided along with 95% CIs.
Subgroup analyses were conducted for patients that had […] at screening. Additional subgroup analysis was performed with a software GraphPad Prism 5 with raw data on each patients analyzed.

HUVEC cells = test: G2 checkpoint abrogation by CBP501 combined with cis-platin in various cell lines; type: cell-based, human; settings: cis-platin 3 μg/ml, 3 hr, then 45 hr
Description: The medium was aspirated, fresh medium without these compounds was added and the cells were incubated for an additional 45 hr. The cells including floating cells were harvested using trypsin-EDTA solution, incubated with Krishan's solution and analyzed for DNA content by flow cytometry as previously described.

M1 and M2 macrophages = test: Phagocytic activity of M1 and M2 macrophages, fluorescent beads; type: cell-based, human
Description: Referring to FIG. 19, macrophages were obtained by stimulating human peripheral blood mononuclear cells by 0.32 uM of PMA and removing all suspension cells 48 hours of PMA stimulation. The cells were further incubated with 50 ng/ml IFN-gamma, 10 ng/ml LPS to obtain M1 phenotype, and 20 ng/ml IL-4 to obtain M2 macrophages. Both treatment was with or without CBP501. The phagocytic activity was monitored by using fluorescent labelled beads and flow cytometry.

(d-Arg)(d-Arg)(d-Arg)(d-Bpa)(d-Arg)(d-Trp)(d-Arg)(d-Phe-2,3,4,5,6-F)(d-Cha) ([dR][dR][dR][dBpa][dR][dW][dR][dPhe(F5)][dCha]) [CBP701]
G2 checkpoint abrogating activity (Jurkat cells [1]): retain G2 checkpoint abrogating activity comparable to other peptides having significant G2 checkpoint abrogating activity

(d-Arg)(d-Arg)(d-Bpa)(d-Arg)(d-Arg)(d-Arg)(d-Phe-2,3,4,5,6-F)(d-Cha) ([dR][dR][dBpa][dR][dR][dR][dPhe(F5)][dCha]) [CBP700]
G2 checkpoint abrogating activity (Jurkat cells [1]): retain G2 checkpoint abrogating activity comparable to other peptides having significant G2 checkpoint abrogating activity

N=C(N)NCCC[C@@H](NC(=O)[C@@H](CCCNC(=N)N)NC(=O)[C@@H](CCC(N)=O)NC(=O)[C@@H](CCCNC(=N)N)NC(=O)[C@@H](CCCNC(=N)N)NC(=O)[C@@H](CCCNC(=N)N)NC(=O)[C@@H](CC1CCCCC1)NC(=O)[C@@H](Cc1c(F)c(F)c(F)c(F)c1F)NC(=O)[C@@H](CO)NC(=O)[C@@H](Cc1c[nH]c2ccccc12)NC(=O)[C@@H](CO)NC(=O)[C@H](N)Cc1ccc(C(=O)c2ccccc2)cc1)C(=O)O [CBP501, (d-Bpa)(d-Ser)(d-Trp)(d-Ser)(d-Phe-2,3,4,5,6-F)(d-Cha)(d-Arg)(d-Arg)(d-Arg)(d-Gln)(d-Arg)(d-Arg)] (H-[dBpa][dS][dW][dS][dPhe(F5)][dCha][dR][dR][dR][dQ][dR][dR]-OH; N-terminus and C-terminus assumed)
Effect on growth of normal cells (HUVEC): does not affect the growth of HUVEC cells | Platinum concentration and platinum-DNA adduct formation [2]: increase platinum concentration and platinum-DNA adduct formation | Effect on M phase cell cycle arrest induced by colchicine (Jurkat cells [3]): does not affect M phase cell cycle arrest and/or non specific toxicity induced by colchicine | Dose up to which non specific toxicity (M checkpoint abrogation) was absent (Jurkat cells [3]; 0.5 μg/ml colchicine): > 50 µM | Dose limiting allergic reactions (grade 3) ([4]; CBP501 36.4 mg/m^2 and cisplatin 75 mg/m^2): two out of six patients experienced allergic reactions | MTD in patients ([4]; in combination with cisplatin 75 mg/m^2, once every 21 days): 24.3 mg/m^2 | Tumor growth, treatment alone ([5]; CBP501 10 or 40 mg/kg intra-peritoneally): suppresses the growth of human pancreatic cancer cell in vivo | Tumor growth, combination with cisplatin ([5]; CDDP 3 mg/kg and CBP501 10 or 40 mg/kg intra-peritoneally): increased the anti-tumor activity of cisplatin | Sensitization to DNA damaging agents (% sub-G1 cells) (MIAPaCa2): sensitized MIAPaCa2 cells to both bleomycin and adriamycin in a dose dependent manner | G2 checkpoint abrogating activity (Jurkat cells [1]): abrogated in a dose dependent manner | Effect on cyto-toxic activity of platinum drugs, colony formation [6]: enhanced the cyto-toxic activity of both cisplatin and oxaliplatin | Residual peptide after 1 hr serum treatment [7]: >90% | Hazard Ratio OS (non-squamous NSCLC; ALL treated, exploring other covariates): 0.77 | Hazard Ratio OS (non-squamous NSCLC; ALL treated, without exploring other covariates): 0.96 | Hazard Ratio OS (non-squamous NSCLC; WBC <10000/μL at screening, exploring other covariates): 0.69 | Hazard Ratio OS (non-squamous NSCLC; WBC <10000/μL at screening, without exploring other covariates): 0.80 | Survival benefit from addition to pemetrexed plus cisplatin (non-squamous NSCLC; all treated population): no statistically significant survival benefit | Survival benefit from addition to pemetrexed plus cisplatin (non-squamous NSCLC; sub-group with normal or low WBC at screening): provided a benefit | Dose up to which HUVEC cells were not sensitized to cisplatin (HUVEC cells): > 50 µM | Phagocytosis of macrophages in vitro (M1 and M2 macrophages): inhibited phagocytosis of both M1 and M2 macrophages

(d-Arg)(d-Arg)(d-Arg)(d-Arg)(d-Bpa)(d-Arg)(d-Trp)(d-Arg)(d-Phe-2,3,4,5,6-F)(d-Cha) ([dR][dR][dR][dR][dBpa][dR][dW][dR][dPhe(F5)][dCha]) [CBP702]
G2 checkpoint abrogating activity (Jurkat cells [1]): retain G2 checkpoint abrogating activity comparable to other peptides having significant G2 checkpoint abrogating activity

N=C(N)NCCC[C@H](NC(=O)CNC(=O)[C@@H](N)Cc1ccc(O)cc1)C(=O)N[C@@H](CCCCN)C(=O)N[C@@H](CCCCN)C(=O)N[C@@H](CCCNC(=N)N)C(=O)N[C@@H](CCCNC(=N)N)C(=O)N[C@@H](CCC(N)=O)C(=O)N[C@@H](CCCNC(=N)N)C(=O)N[C@@H](CCCNC(=N)N)C(=O)N[C@@H](CCCNC(=N)N)C(=O)N[C@@H](CC1CCCCC1)C(=O)N[C@@H](Cc1c(F)c(F)c(F)c(F)c1F)C(=O)N[C@@H](CCCNC(=N)N)C(=O)N[C@@H](CO)C(=O)N1CCC[C@H]1C(=O)N[C@@H](CO)C(=O)N[C@@H](Cc1ccc(O)cc1)C(=O)N[C@@H](Cc1ccc(O)cc1)C(=O)O [CBP413, (l-Tyr)(l-Gly)(l-Arg)(l-Lys)(l-Lys)(l-Arg)(l-Arg)(l-Gln)(l-Arg)(l-Arg)(l-Arg)(l-Cha)(l-Phe-2,3,4,5,6-F)(l-Arg)(l-Ser)(l-Pro)(l-Ser)(l-Tyr)(l-Tyr)]
G2 abrogating dose (Jurkat cells [1]; with 40 μg/ml bleomycine, 24 hours): ≧1.56 μM

(d-Arg)(d-Arg)(d-Arg)(d-Bpa)(d-Arg)(d-Arg)(d-Arg)(d-Phe-2,3,4,5,6-F)(d-Cha) ([dR][dR][dR][dBpa][dR][dR][dR][dPhe(F5)][dCha]) [CBP703]
G2 checkpoint abrogating activity (Jurkat cells [1]): retain G2 checkpoint abrogating activity comparable to other peptides having significant G2 checkpoint abrogating activity
